Test results as given in patent US9017719B2, “Injectable drug carrier comprising layered double hydroxide” (Nanohybrid Co., Ltd., priority 2005, dated 2015).

Assay: In vivo toxicity test of LDH-MTX hybrid and MTX, intraperitoneal, death rate
Conditions: mouse, ip, Balb/c mice, dosed weekly for three weeks
Procedure: Like in the in vivo toxicity test of LDH of Example 2, small animal models, Balb/c mice (6-7 weeks old) were purchased and managed in cages (5 mice/cage). MTX was administered intraperitoneally to 10 mice at each concentration of 50, 75, and 100 mg/kg and the LDH-MTX hybrid synthesized in Example 3 was administered intraperitoneally to 10 mice at each concentration of 3, 6, 12.5, 25, 50, 75, and 100 mg/kg. The body weight of each mouse was measured every week for three weeks and a dosage of drug adjusted to the newly measured weight was administered. The body weights of the mice died during the test were excluded from statistical analysis. A death rate with respect to the concentration of MTX is represented by total number of mice survived in FIG. 7a and a death rate with respect to the concentration of the LDH-MTX hybrid is represented by the total number of mice survived in FIG. 7b. […] That is, the lethal dose of the LDH-MTX hybrid was equal to ⅓ of that of MTX.

Question: With `CN(Cc1cnc2nc(N)nc(N)c2n1)c1ccc(C(=O)N[C@@H](CCC(=O)O)C(=O)O)cc1` [MTX, methotrexate] as the compound, how does the LD50 at 3 weeks read?
Answer: 75 mg/kg
